Patent US9102620B2, “Deuterated N-ethyl-N-phenyl-1,2-dihydro-4-hydroxy-5-chloro-1-methyl-2-oxoquinoline-3-carboxamide, salts and uses thereof” (TEVA PHARMACEUTICAL INDUSTRIES, LTD., priority 2010, dated 2015)
Values joined by “and” are separate entries in the source; they are usually repeats but may differ in a detail not shown here. Identical values can stand only once. Like-named read-outs stand apart in the source and are kept apart here.

Tests used:
[1] = test system: human hepatocyte culture H971; experiment: Morphology of cultured human hepatocytes after treatment; format: cell-based; details: within 24 hours after final treatment
Experimental: At the time of isolation the viability of the human hepatocyte preparation was 70.9%. During and after the 72-hour adaptation period, the culture was observed daily by light microscopy and judged to be morphologically normal with confluency adequate for treatment with test and control articles. Within 24 hours after the final treatment, hepatocytes were photographed to document their morphological integrity and any overt signs of toxicity of the test articles. Representative photomicrographs are maintained at the Testing Facility. […] Prior to and during treatment, human hepatocyte cultures formed confluent monolayers with few intercellular spaces; they were cuboidal and contained intact cell membranes and granular cytoplasm with one or two centrally located nuclei.

[2] = DELAQ concentrations in rat plasma following oral administration of test item; format: in vivo; details: rats, oral 0.2 mg/kg, in average
Experimental: DELAQ in rat plasma was also determined under the following condition. The plasma was purified by on-line SPE after precipitation with LUDOX AS-40 colloidal silica solution followed by the analysis with HPLC with MS/MS detection. The main objectives of this example were: • Quantification of Compound 1, Compound 2, Compound 3 and Laquinimod in rat plasma using LC/MS/MS bioanalytical method. • Characterization of the pharmacokinetic profile of Compound 1, Compound 2, Compound 3 and Laquinimod following oral (PO) administration at a dose of 0.2 mg/kg. • The measurement DELAQ concentrations in the collected plasma samples. Blood was withdrawn from the rats at five different time points for the preparation of plasma. The concentrations of Compound 1, Compound 2, Compound 3, laquinimod, and DELAQ were determined in these plasma samples, using applicable LC/MS/MS methods. The concentrations of test items (Compound 1, Compound 2, Compound 3 and Laquinimod) and the concentration of DELAQ were determined in the plasma samples by using reliable LC/MS/MS assay.

CYP3A4 mRNA = details: human, 3 days; for mRNA Percent positive control, CYP3A4: hepatocytes
Experimental: (§1) After treatment, the cells were incubated in situ with marker substrates for the analysis of phenacetin O-dealkylation (marker for CYP1A2) and midazolam 1′-hydroxylation (marker for CYP3A4/5) by LC/MS/MS.
(§2) Approximately 24 hours after the last treatment, hepatocytes were lysed in TRIzol reagent after the in situ marker substrate incubations, and cell lysates were stored at −75±5° C. For human hepatocyte preparation H971, media from six wells per treatment group was aspirated, and approximately 132 μL TRIzol were added to each well. The cell lysates were mixed by repeated pipetting. Total RNA was isolated from the cell lysates using the TRIzol protocol (Invitrogen) and was purified using the RNeasy Mini Kit (Qiagen Inc.) according to SOP L6161.02. RNA quality and concentration were determined by measuring absorbance at 260 and 280 nm on a BioTek Synergy HT plate reader (BioTek Instruments, Inc.) with KC4 Signature software (version 3.4 Rev 21, BioTek Instruments, Inc.) according to SOP L6162.02. The analysis of RNA integrity was carried out with the RNA 6000 Nano Assay Kit on an Agilent 2100 Bioanalyzer (Agilent Technologies, Inc.) according to SOP L6162.02. Single-stranded cDNA was prepared from RNA with the RT Master Mix using the AB 7300 Real Time PCR system thermocycling program or AB 7900HT Fast Real Time PCR System thermocycling program (Applied Biosystems) according to SOP L6160.04. […] The RT Master Mix was added to each RNA sample to complete the components of the reaction. No template controls (NTCs) were included in the analysis. For the NTC reactions, RNase-free water was added in place of the RNA sample. The cDNA prepared samples were stored at −20±5° C. prior to analysis by qRT-PCR.
(§3) Quantitative RT-PCR was carried out according to SOP L6160.04 (XenoTech, LLC) and the Applied Biosystems protocol. Each PCR was performed in triplicate. A Primer Mix was prepared for each Gene Expression assay. A typical Primer Mix contained TaqMan Universal Master Mix (1×), Gene Expression Assay (1×, 900 nM forward and reverse primers) and RNase-free water. The Reaction Mix was prepared by adding the Primer Mix to cDNA. A percentage of samples (no less than 10%) included NACs. […] The relative quantity of the target cDNA compared with that of the control cDNA (GAPDH) was determined by the ΔΔCt method (Applied Biosystems User Bulletin #2). Relative quantification measures the change in mRNA expression in a test sample relative to that in a control sample (e.g., DMSO). This method assumes that the efficiency of the target amplification and the efficiency of the endogenous control amplification are approximately equal.
(§4) For qRT-PCR, data were processed using the Sequence Detection System (SDS) Software version 1.4, for Relative Quantification (Applied Biosystems). This software analyzes relative gene expression using the comparative Ct method (ΔΔCt), which relates the PCR signal of the target transcript to the PCR signal of the target in an untreated control. Both the treated sample and the untreated control signals are normalized to the endogenous control (GAPDH), for which expression is not affected by treatment and expression is constant throughout the tissue being tested. […] Calculations are as follows: ΔCt=Ct(target)−Ct(endogenous control) 1. ΔΔCt=ΔCt(treated sample)−ΔCt(untreated control) 2. Fold change in expression=2−ΔΔCt 3.
(§5) The level of mRNA expression relative to the positive control was calculated as follows: […]

CYP1A2 mRNA = details: human, 3 days; for mRNA Percent positive control, CYP1A2: hepatocytes
Experimental: as §1, §2, §3, §4, §5

MOG induced EAE = MOG induced EAE in C57BL/6 mice; format: in vivo; details: daily; for Mortality: Day 0 to Day 30; for % inhibition 1 (according to incidence) / % inhibition 2 (according to MMS) / % inhibition 3 (according to GMS): compared to vehicle; for Incidence: sick mice/group

| Compound | cell morphology after treatment [1] | mRNA Fold increase, CYP3A4 (CYP3A4 mRNA; 0.01 μM) | mRNA Fold increase, CYP3A4 (CYP3A4 mRNA; 0.05 μM) | mRNA Fold increase, CYP3A4 (CYP3A4 mRNA; 0.1 μM) | mRNA Fold increase, CYP3A4 (CYP3A4 mRNA; 1 μM) | mRNA Fold increase, CYP3A4 (CYP3A4 mRNA; 10 μM) | mRNA Percent positive control, CYP3A4 (CYP3A4 mRNA; 0.01 μM) | mRNA Percent positive control, CYP3A4 (CYP3A4 mRNA; 0.05 μM) | mRNA Percent positive control, CYP3A4 (CYP3A4 mRNA; 0.1 μM) | mRNA Percent positive control, CYP3A4 (CYP3A4 mRNA; 1 μM) | mRNA Percent positive control, CYP3A4 (CYP3A4 mRNA; 10 μM) | mRNA Fold increase, CYP1A2 (CYP1A2 mRNA; 0.01 μM) | mRNA Fold increase, CYP1A2 (CYP1A2 mRNA; 0.05 μM) | mRNA Fold increase, CYP1A2 (CYP1A2 mRNA; 0.1 μM) | mRNA Fold increase, CYP1A2 (CYP1A2 mRNA; 1 μM) | mRNA Fold increase, CYP1A2 (CYP1A2 mRNA; 10 μM) | mRNA Percent positive control, CYP1A2 (CYP1A2 mRNA; 0.01 μM) | mRNA Percent positive control, CYP1A2 (CYP1A2 mRNA; 0.05 μM) | mRNA Percent positive control, CYP1A2 (CYP1A2 mRNA; 0.1 μM) | mRNA Percent positive control, CYP1A2 (CYP1A2 mRNA; 1 μM) | also measured |
| --- | --- | --- | --- | --- | --- | --- | --- | --- | --- | --- | --- | --- | --- | --- | --- | --- | --- | --- | --- | --- | --- |
| [2H]C([2H])([2H])C([2H])([2H])N(C(=O)c1c(O)c2c(Cl)cccc2n(C)c1=O)c1ccccc1 [Compound 2, N-D5-ethyl-N-phenyl-1,2-dihydro-4-hydroxy-5-chloro-1-methyl-2-oxoquinoline-3-carboxamide] | no changes in cell morphology | 0.437 fold | 0.428 fold | 0.339 fold | 0.252 fold | 0.689 fold | −15.5% | −15.8% | −18.2% | −20.6% | −8.57% | 2.84 fold | 4.98 fold | 7.20 fold | 13.1 fold | 24.3 fold | 24.2% | 52.5% | 81.7% | 159% | reduction in DELAQ concentrations compared to laquinimod treated animals [2]: about ten-fold; mRNA Percent positive control, CYP1A2 (CYP1A2 mRNA; 10 μM): 307%; GMS value (group mean score) (MOG induced EAE; 10 mg/kg orally): 0.79 ± 0.2; MMS value (mean maximal score) (MOG induced EAE; 10 mg/kg orally): 2.1 ± 1.3; Mean Duration (MOG induced EAE; 10 mg/kg orally): 13.2 ± 7.7 days; Mean Onset (MOG induced EAE; 10 mg/kg orally): 15.3 ± 6.8 days; activity in inhibition of EAE clinical signs compared to laquinimod (MOG induced EAE; 10 mg/kg orally): no significant difference in activity; Mortality (MOG induced EAE; 10 mg/kg orally): 0/15; % inhibition 1 (according to incidence) (MOG induced EAE; 10 mg/kg orally): 7.1%; % inhibition 2 (according to MMS) (MOG induced EAE; 10 mg/kg orally): 34.4%; % inhibition 3 (according to GMS) (MOG induced EAE; 10 mg/kg orally): 64.3%; Incidence (MOG induced EAE; 10 mg/kg orally): 13/15 |
| CCN(C(=O)c1c(O)c2c(Cl)cccc2n(C)c1=O)c1ccccc1 [Laquinimod, N-ethyl-N-phenyl-1,2-dihydro-4-hydroxy-5-chloro-1-methyl-2-oxoquinoline-3-carboxamide] | no changes in cell morphology | 0.621 fold | 0.347 fold | 0.427 fold | 0.286 fold | 0.636 fold | −10.4% | −18.0% | −15.8% | −19.7% | −10.0% | 4.22 fold | 7.90 fold | 9.50 fold | 16.8 fold | 20.5 fold | 42.5% | 91.1% | 112% | 209% | mRNA Percent positive control, CYP1A2 (CYP1A2 mRNA; 10 μM): 257%; GMS value (group mean score) (MOG induced EAE; 10 mg/kg orally): 1.14 ± 0.5; MMS value (mean maximal score) (MOG induced EAE; 10 mg/kg orally): 2.1 ± 1.9; Mean Duration (MOG induced EAE; 10 mg/kg orally): 9.3 ± 8.3 days; Mean Onset (MOG induced EAE; 10 mg/kg orally): 21.6 ± 8.4 days; Mortality (MOG induced EAE; 10 mg/kg orally): 0/15; % inhibition 1 (according to incidence) (MOG induced EAE; 10 mg/kg orally): 35.7%; % inhibition 2 (according to MMS) (MOG induced EAE; 10 mg/kg orally): 34.4%; % inhibition 3 (according to GMS) (MOG induced EAE; 10 mg/kg orally): 48.4%; % inhibition 3 (according to GMS) (MOG induced EAE; 10 mg/kg orally, listed as laquinimod): 48.4%; Incidence (MOG induced EAE; 10 mg/kg orally): 9/15; GMS value (group mean score) (MOG induced EAE; 25 mg/kg orally): 0.5±0.1 and 0.5 ± 0.13; MMS value (mean maximal score) (MOG induced EAE; 25 mg/kg orally): 1.3±1.8; Mean Duration (MOG induced EAE; 25 mg/kg orally): 3.0 ± 5.8 days; Mean Onset (MOG induced EAE; 25 mg/kg orally): 28.0 ± 5.8 days; Mortality (MOG induced EAE; 25 mg/kg orally): 0/15; % inhibition 1 (according to incidence) (MOG induced EAE; 25 mg/kg orally): 71.4%; % inhibition 2 (according to MMS) (MOG induced EAE; 25 mg/kg orally): 59.4%; % inhibition 3 (according to GMS) (MOG induced EAE; 25 mg/kg orally): 97.7%; Incidence (MOG induced EAE; 25 mg/kg orally): 4/15 |
